Source: patent publication US7811352B2, “Fertilizer compositions and methods of using” (priority 2005, dated 2010)

Tests used:
Assay type in all cases: in vivo
Bermuda grass [1] = assay: Phytotoxicity (% burn), Bermuda grass golf course fairways (Example 13)
Experimental: In this Example, the effect of a fertilizer comprising lysine on turfgrass growth was examined. The effects of lysine (HCl) and LIQUID LYSINE on a common type of golf course fairway quality turfgrass (Bermuda green) were compared with those of CoRoN® brand fertilizer.
Six fertilizer treatments comprising two concentrations of each fertilizer composition (Coron® (N—P—K, 14-2-14), LIQUID LYSINE (N—P—K, 10-2-1), and lysine (HCl) (N—P—K, 15-2-1)) were prepared and applied to 3 replications of Bermuda grass for use on golf course fairways. The lysine (HCl) was applied as a granular using a Scotts 2 foot drop spreader on a setting of 4.5. The solutions of LIQUID LYSINE and Coran were applied using a Birchmeier backpack sprayer with a 5 foot spray pattern. Each fertilizer treatment was applied in concentrations 3.0 lb N/1000 ft^2 and 6.0 lb N/1000 ft^2. Plot size was 5 ft×60 ft set up as a randomized complete block. Irrigation was applied following application, Plots were rated for turfgrass quality and color (scale of 1-10 where 10=dark green turf 1=dead/brown turf and 6=minimally acceptable turf) and phytotoxicity (% burn) throughout the study period and compared with two untreated plots. […] All data was subject to statistical analysis and significant means were determined.

Bermuda grass [2] = assay: Turfgrass quality and color ratings, Bermuda grass fairway (Example 10); set-up: key: 1-10; 10 = dark green turf, 1 = dead/brown, 6 = minimally acceptable; details: scale 1-10
Source text: (§1) In this Example, the effect of a fertilizer comprising lysine on warm season turfgrass growth was examined. The effects of lysine (HCl) and LIQUID LYSINE on a common type of golf course fairway quality turfgrass (Bermuda grass) were compared with those of urea and Milorganite.
(§2) Fifteen fertilizer treatments comprising three concentrations of each fertilizer composition (Milorganite (N—P—K, 6-2-0), urea (N—P—K, 46-0-0), LIQUID LYSINE (N—P—K, 10-2-1), and both granular and aqueous lysine (HCl) (N—P—K, 15-2-1)) were prepared and applied to 4 replications of Bermuda grass. The aqueous lysine (HCl) was dissolved in water prior to application. Each fertilizer treatment was applied in concentrations of 0.5 lb N/1000 ft^2/month, 1.0 lb N/1000 ft^2/month and 3.0 lb N/1000 ft^2/month. The urea, LIQUID LYSINE and aqueous lysine (HCl) were applied as foliar liquids, while Milorganite and granular lysine (HCl) were applied as granular fertilizers Plot size was 1 m×2 m set up as a randomized complete block. Plots were mowed at 0.5 inches before fertilizer application. Irrigation (0.15 inch) was applied following application. Plots were rated for turfgrass quality and color (scale of 1-10 where 10=dark green turf, 1=dead/brown turf, and 6=minimally acceptable turf) and phytotoxicity (scale of 0-5, where 5=worst, and 2=minimally objectionable) throughout the study period. Quality, color, and phytotoxicity were measured on 2 days before application (day −2) and day 2, day 5, day 15 and day 21 after application. All data was subject to statistical analysis and significant means were determined. Average turfgrass quality ratings for the treatments are presented in Table 9 and the quality results for application rates of 1.0 lb N/1000 ft^2/month are graphically presented in FIG. 4.

Bermuda grass [3] = assay: Phytotoxicity rating, Bermuda grass fairway (Example 10); details: scale 0-5, 5=worst
Source text: as §1, §2

[4] = Monthly Rate 0.5 lbs N/1000 ft^2, Day 2
[5] = Monthly Rate 0.5 lbs N/1000 ft^2, Day 5
[6] = Monthly Rate 0.5 lbs N/1000 ft^2, Day 15
[7] = Monthly Rate 0.5 lbs N/1000 ft^2, Day 21
[8] = Monthly Rate 0.5 lbs N/1000 ft^2, Day −2 (before application)
[9] = Monthly Rate 1.0 lbs N/1000 ft^2, Day 2
[10] = Monthly Rate 1.0 lbs N/1000 ft^2, Day 5
[11] = Monthly Rate 1.0 lbs N/1000 ft^2, Day 15
[12] = Monthly Rate 1.0 lbs N/1000 ft^2, Day 21
[13] = Monthly Rate 1.0 lbs N/1000 ft^2, Day −2 (before application)
[14] = Monthly Rate 3.0 lbs N/1000 ft^2, Day 2
[15] = Monthly Rate 3.0 lbs N/1000 ft^2, Day 5
[16] = Monthly Rate 3.0 lbs N/1000 ft^2, Day 15
[17] = Monthly Rate 3.0 lbs N/1000 ft^2, Day 21
[18] = Monthly Rate 3.0 lbs N/1000 ft^2, Day −2 (before application)

Cl.NCCCC[C@H](N)C(=O)O [Lys (HCl) 15% N, L-lysine monohydrochloride]
Phytotoxicity (% Burn) - Bermuda grass (Bermuda grass [1]; 3.0 lb N/1000 ft^2, Day 7): 11.7bc %
Phytotoxicity (% Burn) - Bermuda grass (Bermuda grass [1]; 3.0 lb N/1000 ft^2, Day 12): 6.7b %
Phytotoxicity (% Burn) - Bermuda grass (Bermuda grass [1]; 3.0 lb N/1000 ft^2, Day 19): 1.7bc %
Phytotoxicity (% Burn) - Bermuda grass (Bermuda grass [1]; 3.0 lb N/1000 ft^2, Day 26): 0.0b %
Phytotoxicity (% Burn) - Bermuda grass (Bermuda grass [1]; 3.0 lb N/1000 ft^2, Day 33): 0.0a %
Phytotoxicity (% Burn) - Bermuda grass (Bermuda grass [1]; 3.0 lb N/1000 ft^2, Day 40): 0.0c %
Phytotoxicity (% Burn) - Bermuda grass (Bermuda grass [1]; 3.0 lb N/1000 ft^2, Day 47): 0.0c %
Phytotoxicity (% Burn) - Bermuda grass (Bermuda grass [1]; 6.0 lb N/1000 ft^2, Day 7): 21.7a %
Phytotoxicity (% Burn) - Bermuda grass (Bermuda grass [1]; 6.0 lb N/1000 ft^2, Day 12): 11.7a %
Phytotoxicity (% Burn) - Bermuda grass (Bermuda grass [1]; 6.0 lb N/1000 ft^2, Day 19): 5.0b %
Phytotoxicity (% Burn) - Bermuda grass (Bermuda grass [1]; 6.0 lb N/1000 ft^2, Day 26): 0.0b %
Phytotoxicity (% Burn) - Bermuda grass (Bermuda grass [1]; 6.0 lb N/1000 ft^2, Day 33): 0.0a %
Phytotoxicity (% Burn) - Bermuda grass (Bermuda grass [1]; 6.0 lb N/1000 ft^2, Day 40): 0.0c %
Phytotoxicity (% Burn) - Bermuda grass (Bermuda grass [1]; 6.0 lb N/1000 ft^2, Day 47): 0.0c %

NC(N)=O [Urea, urea, reference compound]
Color Ratings - Bermuda Grass (Bermuda grass [2]; [4]): 7.4
Quality Ratings - Bermuda Grass (Bermuda grass [2]; [4]): 7.5ab
Color Ratings - Bermuda Grass (Bermuda grass [2]; [5]): 7.6efg
Quality Ratings - Bermuda Grass (Bermuda grass [2]; [5]): 7.5cd
Color Ratings - Bermuda Grass (Bermuda grass [2]; [6]): 7.4de
Quality Ratings - Bermuda Grass (Bermuda grass [2]; [6]): 7.5de
Color Ratings - Bermuda Grass (Bermuda grass [2]; [7]): 7.6cd
Quality Ratings - Bermuda Grass (Bermuda grass [2]; [7]): 7.5f
Color Ratings - Bermuda Grass (Bermuda grass [2]; [8]): 6.5
Quality Ratings - Bermuda Grass (Bermuda grass [2]; [8]): 6.3
Color Ratings - Bermuda Grass (Bermuda grass [2]; [9]): 7.6
Quality Ratings - Bermuda Grass (Bermuda grass [2]; [9]): 7.5ab
Color Ratings - Bermuda Grass (Bermuda grass [2]; [10]): 8.0def
Quality Ratings - Bermuda Grass (Bermuda grass [2]; [10]): 7.9abc
Color Ratings - Bermuda Grass (Bermuda grass [2]; [11]): 7.3de
Quality Ratings - Bermuda Grass (Bermuda grass [2]; [11]): 7.6de
Color Ratings - Bermuda Grass (Bermuda grass [2]; [12]): 7.6cd
Quality Ratings - Bermuda Grass (Bermuda grass [2]; [12]): 7.6ef
Color Ratings - Bermuda Grass (Bermuda grass [2]; [13]): 6.5
Quality Ratings - Bermuda Grass (Bermuda grass [2]; [13]): 6.3
Color Ratings - Bermuda Grass (Bermuda grass [2]; [14]): 8.0
Quality Ratings - Bermuda Grass (Bermuda grass [2]; [14]): 8.1a
Color Ratings - Bermuda Grass (Bermuda grass [2]; [15]): 8.8ab
Quality Ratings - Bermuda Grass (Bermuda grass [2]; [15]): 8.3ab
Color Ratings - Bermuda Grass (Bermuda grass [2]; [16]): 7.5cde
Quality Ratings - Bermuda Grass (Bermuda grass [2]; [16]): 7.9de
Color Ratings - Bermuda Grass (Bermuda grass [2]; [17]): 7.9bcd
Quality Ratings - Bermuda Grass (Bermuda grass [2]; [17]): 7.8def
Color Ratings - Bermuda Grass (Bermuda grass [2]; [18]): 6.4
Quality Ratings - Bermuda Grass (Bermuda grass [2]; [18]): 6.1
Phytotoxicity - Bermuda Grass (Bermuda grass [3]; [4]): 0.0b
Phytotoxicity - Bermuda Grass (Bermuda grass [3]; [5]): 0
Phytotoxicity - Bermuda Grass (Bermuda grass [3]; [6]): 0
Phytotoxicity - Bermuda Grass (Bermuda grass [3]; [7]): 0
Phytotoxicity - Bermuda Grass (Bermuda grass [3]; [8]): 0
Phytotoxicity - Bermuda Grass (Bermuda grass [3]; [9]): 0.0b
Phytotoxicity - Bermuda Grass (Bermuda grass [3]; [10]): 0
Phytotoxicity - Bermuda Grass (Bermuda grass [3]; [11]): 0
Phytotoxicity - Bermuda Grass (Bermuda grass [3]; [12]): 0
Phytotoxicity - Bermuda Grass (Bermuda grass [3]; [13]): 0
Phytotoxicity - Bermuda Grass (Bermuda grass [3]; [14]): 0.0b
Phytotoxicity - Bermuda Grass (Bermuda grass [3]; [15]): 0
Phytotoxicity - Bermuda Grass (Bermuda grass [3]; [16]): 0
Phytotoxicity - Bermuda Grass (Bermuda grass [3]; [17]): 0
Phytotoxicity - Bermuda Grass (Bermuda grass [3]; [18]): 0
